Patent US4826982A, “Quinolonecarboxylic acid derivatives” (Kyorin Pharmaceutical Co., Ltd., priority 1985, dated 1989)
In brackets after ≈: the same amount, converted by molar mass. Read-outs that look alike come from different tables or passages of the source.

How the values were obtained:
[1] = test system: Pseudomonas aeruginosa V-1; test: Antibacterial spectrum, MIC; conditions: V1
[2] = test system: Morganella morganii IID 602; test: Antibacterial spectrum, MIC; type: cell-based; conditions: IID602
Pst. micros UPI 5464-1 = test: Antibacterial spectrum, MIC; conditions: Parvimonas micra, UPI54641
[3] = test system: Propionibacterium acens 11828; test: Antibacterial spectrum, MIC; type: cell-based
C. ramosum = test: Antibacterial spectrum, MIC; type: cell-based; conditions: Thomasclavelia ramosa; 10^6 cells/ml; Gram +; standard strain; read-out: MIC
[4] = test system: Yersinia enterocolitica IID 981; test: microbe, parasite or virus in culture; type: cell-based; conditions: IID981
[5] = test system: B. thetaiotaomicron (0661); test: Antibacterial spectrum, MIC; type: cell-based; conditions: Bacteroides thetaiotaomicron; 10^6 cells/ml; Gram -; standard strain; read-out: MIC
[6] = test system: Veillonella parvula KYA 10790; test: Antibacterial spectrum, MIC; conditions: KYA10790
[7] = test system: Peptococcus magnus KY 017; test: microbe, parasite or virus in culture; conditions: Finegoldia magna, KY017
[8] = test system: Bacteroides fragilis GM 7000; test: Antibacterial spectrum, MIC; conditions: GM7000
[9] = test system: Eubacterium lentum GAI 5242; test: microbe, parasite or virus in culture; conditions: Eggerthella lenta, GAI5242
[10] = test system: Bacillus subtilis PCI 219; test: Antibacterial spectrum, MIC by method recommended by Japan Society of Chemotherapy; type: cell-based; conditions: PCI219, 10^6 cells/ml, Gram +, standard strain
From the text: (§1) In vitro antibacterial activity (standard strains)
(§2) Organism (10^6 cells/ml)

F. varium KYA 8501 = test: Antibacterial spectrum, MIC; type: cell-based; conditions: Fusobacterium varium, KYA8501
[11] = test system: Clostridium perfringens KYA 13123; test: microbe, parasite or virus in culture; conditions: KYA13123
S. pyogenes IID 692 = test: microbe, parasite or virus in culture; conditions: Streptococcus pyogenes, IID692
P. aeruginosa IFO 12689 = test: microbe, parasite or virus in culture; conditions: Pseudomonas aeruginosa, IFO12689
[12] = test system: Peptostreptococcus anaerobius KYA 27337; test: Antibacterial spectrum, MIC; type: cell-based
Shigella sonnei IID 969 = test: Antibacterial spectrum, MIC; type: cell-based; conditions: IID969, 10^6 cells/ml, Gram -, standard strain
From the text: as §1, §2

E. faecalis IID 682 = test: Antibacterial spectrum, MIC; type: cell-based; conditions: Enterococcus faecalis, IID682; 10^6 cells/ml; Gram +; standard strain
From the text: as §1, §2

[13] = test system: Acinetobacter anitratus IID 876; test: Antibacterial spectrum, MIC; type: cell-based; conditions: Acinetobacter calcoaceticus, IID876; 10^6 cells/ml; Gram -; standard strain
From the text: as §1, §2

[14] = test system: Streptococcus pyogenes (S-8); test: Antibacterial spectrum, MIC; type: cell-based; conditions: 10^6 cells/ml, Gram +, standard strain
From the text: as §1, §2

[15] = test system: Staphylococcus aureus 209 P; test: Antibacterial spectrum, MIC; type: cell-based; conditions: 10^6 cells/ml, Gram +, standard strain
From the text: as §1, §2

S. pneumoniae IID 552 = test: Antibacterial spectrum, MIC; type: cell-based; conditions: Streptococcus pneumoniae, IID552; 10^6 cells/ml; Gram +; standard strain
From the text: as §1, §2

[16] = test system: Escherichia coli NIHJ JC-2; test: Antibacterial spectrum, MIC; type: cell-based; conditions: NIHJJC2, 10^6 cells/ml, Gram -, standard strain
From the text: as §1, §2

K. pneumoniae 1-220S = test: Antibacterial spectrum, MIC; type: cell-based; conditions: Klebsiella pneumoniae, 1220S; 10^6 cells/ml; Gram -; standard strain
From the text: as §1, §2

[17] = test system: Alcaligenes faecalis 0114002; test: Antibacterial spectrum, MIC; type: cell-based; conditions: 10^6 cells/ml, Gram -, standard strain
From the text: as §1, §2

P. mirabilis IID 994 = test: Antibacterial spectrum, MIC; type: cell-based; conditions: Proteus mirabilis, IID994; 10^6 cells/ml; Gram -; standard strain
From the text: as §1, §2

B. fragilis 25285 = test: Antibacterial spectrum, MIC; type: cell-based; conditions: Bacteroides fragilis, 10^6 cells/ml, Gram -, standard strain
From the text: as §1, §2

[18] = test system: Enterobacter cloacae IID 977; test: Antibacterial spectrum, MIC; type: cell-based; conditions: IID977, 10^6 cells/ml, Gram -, standard strain
From the text: as §1, §2

[19] = test system: Salmonella enteritidis IID 604; test: Antibacterial spectrum, MIC; type: cell-based; conditions: Salmonella enterica; 10^6 cells/ml; Gram -; standard strain
From the text: as §1, §2

[20] = test system: Klebsiella pneumoniae KY(GN)6445; test: Antibacterial spectrum, MIC; type: cell-based; conditions: 10^6 cells/ml, Gram -, standard strain
From the text: as §1, §2

[21] = test system: Fusobacterium necrophorum S-45; test: Antibacterial spectrum, MIC; type: cell-based; conditions: S45, 10^6 cells/ml, Gram -, standard strain
From the text: as §1, §2

[22] = test system: S. aureus IID 670 (Terajima); test: Antibacterial spectrum, MIC; type: cell-based; conditions: Staphylococcus aureus, IID670; 10^6 cells/ml; Gram +; standard strain
From the text: as §1, §2

B. fragilis 0558 = test: Antibacterial spectrum, MIC; type: cell-based; conditions: Bacteroides fragilis, 10^6 cells/ml, Gram -, standard strain
From the text: as §1, §2

[23] = test system: Citrobacter freundii IID 976; test: Antibacterial spectrum, MIC; type: cell-based; conditions: IID976, 10^6 cells/ml, Gram -, standard strain
From the text: as §1, §2

S. epidermidis IID 866 = test: Antibacterial spectrum, MIC; type: cell-based; conditions: Staphylococcus epidermidis, IID866; 10^6 cells/ml; Gram +; standard strain
From the text: as §1, §2

[24] = test system: Serratia marcescens IID 618; test: Antibacterial spectrum, MIC; type: cell-based; conditions: IID618, 10^6 cells/ml, Gram -, standard strain
From the text: as §1, §2

[25] = test system: Proteus vulgaris IFO 3167; test: Antibacterial spectrum, MIC; type: cell-based; conditions: IFO3167, 10^6 cells/ml, Gram -, standard strain
From the text: as §1, §2

B. distasonis 8503 = test: Antibacterial spectrum, MIC; type: cell-based; conditions: Parabacteroides distasonis, 10^6 cells/ml, Gram -, standard strain
From the text: as §1, §2

E. coli ATCC l0536 = test: Antibacterial spectrum, MIC; type: cell-based; conditions: Escherichia coli, ATCCL0536
From the text: as §1, §2

| SMILES | MIC [1] [µg/mL] | MIC [2] [µg/mL] | MIC (Pst. micros UPI 5464-1) [µg/mL] | MIC (C. ramosum) [µg/mL] | MIC [4] [µg/mL] | MIC [5] [µg/mL] | MIC [6] [µg/mL] | MIC [7] [µg/mL] | MIC [8] [µg/mL] | MIC [9] [µg/mL] | MIC (Shigella sonnei IID 969) [µg/mL] | MIC [13] [µg/mL] | MIC [15] [µg/mL] | MIC [16] [µg/mL] | MIC (K. pneumoniae 1-220S) [µg/mL] | MIC (B. fragilis 25285) [µg/mL] | MIC [22] [µg/mL] | MIC (B. fragilis 0558) [µg/mL] | MIC (S. epidermidis IID 866) [µg/mL] | MIC (B. distasonis 8503) [µg/mL] | also measured |
| --- | --- | --- | --- | --- | --- | --- | --- | --- | --- | --- | --- | --- | --- | --- | --- | --- | --- | --- | --- | --- | --- |
| CC1COc2c(N3CCN(C)CC3)c(F)cc3c(=O)c(C(=O)O)cn1c23 (stereo not shown) [OFLX, ofloxacin, reference compound] | 0.39 (≈ 1.08 µM) | 0.1 (≈ 0.277 µM) | 0.78 (≈ 2.16 µM) | 12.5 (≈ 34.6 µM) | 0.2 (≈ 0.553 µM) | 6.25 (≈ 17.3 µM) | 0.78 (≈ 2.16 µM) | 0.78 (≈ 2.16 µM) | 3.13 (≈ 8.66 µM) | 0.78 (≈ 2.16 µM) | 0.05 (≈ 0.138 µM) | 0.2 (≈ 0.553 µM) | 0.2 (≈ 0.553 µM) | ≤ 0.025 | 0.2 (≈ 0.553 µM) | 1.56 (≈ 4.32 µM) | 0.39 (≈ 1.08 µM) | 1.56 (≈ 4.32 µM) | 0.39 (≈ 1.08 µM) | 6.25 (≈ 17.3 µM) | MIC [3]: 12.5 µg/mL (≈ 34.6 µM); MIC [10]: 0.1 µg/mL (≈ 0.277 µM); MIC (F. varium KYA 8501; 10^6 cells/ml, Gram -, standard strain, read-out: MIC): 12.5 µg/mL (≈ 34.6 µM); MIC [11]: 0.78 µg/mL (≈ 2.16 µM); MIC (S. pyogenes IID 692): 3.13 µg/mL (≈ 8.66 µM); MIC (P. aeruginosa IFO 12689): 3.13 µg/mL (≈ 8.66 µM); MIC ([12]; KYA27337): 3.13 µg/mL (≈ 8.66 µM); MIC (E. faecalis IID 682): 1.56 µg/mL (≈ 4.32 µM); MIC [14]: 1.56 µg/mL (≈ 4.32 µM); MIC (S. pneumoniae IID 552): 1.56 µg/mL (≈ 4.32 µM); MIC [17]: 0.78 µg/mL (≈ 2.16 µM); MIC (P. mirabilis IID 994): 0.05 µg/mL (≈ 0.138 µM); MIC [18]: 0.1 µg/mL (≈ 0.277 µM); MIC [19]: 0.1 µg/mL (≈ 0.277 µM); MIC [20]: 0.05 µg/mL (≈ 0.138 µM); MIC [21]: 1.56 µg/mL (≈ 4.32 µM); MIC [23]: 0.1 µg/mL (≈ 0.277 µM); MIC [24]: 0.1 µg/mL (≈ 0.277 µM); MIC [25]: 0.05 µg/mL (≈ 0.138 µM); MIC (E. coli ATCC l0536): 0.05 µg/mL (≈ 0.138 µM) |
| O=C(O)c1cn(C2CC2)c2cc(N3CCNCC3)c(F)cc2c1=O [CPFX, ciprofloxacin, reference compound] | 0.05 (≈ 0.151 µM) | – | 0.2 (≈ 0.604 µM) | – | – | – | 0.2 (≈ 0.604 µM) | – | 6.25 (≈ 18.9 µM) | – | 0.0063 (≈ 0.019 µM) | 0.2 (≈ 0.604 µM) | 0.2 (≈ 0.604 µM) | ≤ 0.0063 | 0.05 (≈ 0.151 µM) | 6.25 (≈ 18.9 µM) | 0.2 (≈ 0.604 µM) | 3.13 (≈ 9.45 µM) | 0.2 (≈ 0.604 µM) | 6.25 (≈ 18.9 µM) | – |
| CC1CN(c2c(F)cc3c(=O)c(C(=O)O)cn(C4CC4)c3c2Br)CCN1.Cl (stereo not shown) [Exp. 18, 8-Bromo-1-cyclopropyl-6-fluoro-1,4-dihydro-7-(3-methyl-1-piperazinyl)-4-oxo-3-quinolinecarboxylic acid hydrochloride] | 0.39 | 0.1 | 0.39 | 6.25 | 0.1 | 1.56 | 0.39 | 0.39 | 0.78 | 0.39 | 0.025 | 0.05 | 0.1 | 0.0125 | 0.1 | 0.39 | 0.2 | 0.39 | 0.2 | 1.56 | MIC ([3]; 10^6 cells/ml, Gram +, standard strain, read-out: MIC): 6.25 µg/mL; MIC [10]: 0.05 µg/mL; MIC (F. varium KYA 8501): 3.13 µg/mL; MIC [11]: 0.78 µg/mL; MIC (S. pyogenes IID 692): 0.78 µg/mL; MIC (P. aeruginosa IFO 12689): 3.13 µg/mL; MIC ([12]; KYA27337, 10^6 cells/ml, Gram +, standard strain, read-out: MIC): 1.56 µg/mL; MIC (E. faecalis IID 682): 0.78 µg/mL; MIC [14]: 0.78 µg/mL; MIC (S. pneumoniae IID 552): 0.78 µg/mL; MIC [17]: 0.39 µg/mL; MIC (P. mirabilis IID 994): 0.025 µg/mL; MIC [18]: 0.1 µg/mL; MIC [19]: 0.05 µg/mL; MIC [20]: 0.05 µg/mL; MIC [21]: 0.78 µg/mL; MIC [23]: 0.05 µg/mL; MIC [24]: 0.1 µg/mL; MIC [25]: 0.025 µg/mL; MIC (E. coli ATCC l0536): 0.025 µg/mL |
